Patent publication US12551461B2, “Compositions of triglycerides and uses thereof” (Ultragenyx Pharmaceutical Inc., priority 2013, dated 2026)
Entries after “also recorded” stand apart in the source; their conditions may differ.

How the values were obtained:
mini-pigs = test: Multiple dose study, vomiting and gastric distress observations
[1] = Multiple dose study, metabolite PK profiles Day 1 and Day 7
[2] = Storage stability of triheptanoin oil; type: physicochemical; conditions: stored at room temperature and protected from light
Source text: In some embodiments, the triheptanoin oil as described herein is a colorless oil of low viscosity and is odorless and tasteless. Triheptanoin oil as described herein is typically stored at room temperature and protected from light, and its stability can exceed 24 months under such conditions.

[3] = Single dose study, PK profile of triheptanoin and metabolites; type: in vivo; conditions: single oral gavage dose, Day 1, mini-pigs
Description: Single dose study of each arm with full pharmacokinetics (PK) profile through 48 hours post dose was performed to determined when metabolites return to baseline (one week washout between each arm) as well as if acute release of gastrin and cholesystokinin (CCK) hormones cause spasmodic stomach contractions. Blood samples were collected from each arm 0-90 min plus anytime outside this window if gastric distress observed.
More specifically, animals (n=3/sex) were fasted prior to dose and fed 4 hrs post dose. Blood samples for PK analysis of triheptanoin and metabolites were collected pre-dose through 48 hrs post dose.
In FIGS. 1-21, animals were administered a single oral gavage dose level of a triheptanoin oil sample (i.e., the oil) or exemplary solid samples comprising triheptanoin oil in accordance with the present invention. The two exemplary solid compositions comprise 1) 60%:20%:20% of triheptanoin oil:Cab-O-Sil:cellulose acetate (i.e., the Powder-ER); and 2) 80%:20% of triheptanoin oil:Cab-O-Sil (i.e., the Powder), respectively.

With `CCCCCCC(=O)OCC(COC(=O)CCCCCC)OC(=O)CCCCCC` [triheptanoin oil, propane-1,2,3-triyl triheptanoate] the “vomiting or gastric distress observed” value (mini-pigs) was “Day 1: Animal #6501 vomited ˜3 hours post dose; also recorded: Day 1: Animal #6516 vomited ˜3 hours post dose; also recorded: Day 5: Animal #6509 gastric distressed observed”, the Propionylglycine levels ([1]; Day 1 and Day 7, mini-pigs) was “essentially zero” and the pimelic acid levels ([1]; Day 1 and Day 7, mini-pigs) was “highest amount of pimelic acid”. The “conversion of triheptanoin to C7” value ([1]; mini-pigs) was “All triheptanoin oil was converted to C7”, the triheptanoin levels ([1]; mini-pigs) was “no triheptanoin values” and the stability [2] was “exceed 24 months”. The “levels of ketones (C4-OH, C5-OH)” value [3] was “comparable levels of ketones”.
